Bounds are passed on as bounds.

This assay deals with HMPV clinical isolate A2 strain TN 94-49. As to the kind of experiment: HMPV antiviral assay, Method 2 (LLC-MK2 cells with CP-100-356, ATP-Lite). Format: cell-based. To be noted: human metapneumovirus; hMPV A2 TN/94-49, LLC-MK2 cells with CP-100-356, Method 2. Put shortly:
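LLC-MK2 rhesus kidney cells (5,000/well) infected in suspension with HMPV A2 TN 94-49 at MOI 0.16, in serum-free medium with final 2 μg/mL TPCK-trypsin and 2 μM CP-100-356. Compounds tested in duplicate from 200 nM, 2.5-fold, 10 points; 7 days at 37 °C. Cell health by ATP-Lite luminescence; EC50 by four-parameter fit.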
In the case of `COc1cc(C(=O)NC[C@@](O)(c2cnoc2)c2cc3c(c(-c4cc(Cl)c(F)cc4F)n2)OC[C@]3(C)C(N)=O)cc2cn(C3CC3)nc12` [Example 491], the EC50 is < 200 nM. Take `COc1cc(C(=O)NC[C@@](O)(c2ccnc(F)c2)c2cc3c(c(-c4cccc(Cl)c4Cl)n2)OC[C@]3(C)C(N)=O)cc2cn(C3CC3)nc12` [Example 492]: the EC50 is < 200 nM.

For `COc1cc(C(=O)NC[C@@](O)(c2cccc(C(C)=O)c2)c2cc3c(c(-c4cccc(Cl)c4Cl)n2)OC[C@]3(C)C(N)=O)cc2cn(C3CC3)nc12` [Example 493], the EC50 is < 200 nM. For `COc1cc([C@](O)(CNC(=O)c2cc(OC)c3nn(C4CC4)cc3c2)c2cc3c(c(-c4cccc(Cl)c4Cl)n2)OC[C@]3(C)C(N)=O)ccn1` [Example 494], the EC50 was < 200 nM. Turning to `COc1cc(C(=O)NC[C@@](O)(c2cccc(C(C)O)c2)c2cc3c(c(-c4cccc(Cl)c4Cl)n2)OC[C@]3(C)C(N)=O)cc2cn(C3CC3)nc12` (stereo partly drawn) [Example 495], the EC50 was > 200 nM. In the case of `COc1cccc([C@](O)(CNC(=O)c2cc(OC)c3nn(C4CC4)cc3c2)c2cc3c(c(-c4cccc(Cl)c4Cl)n2)OC[C@]3(C)C(N)=O)n1` [Example 496], the EC50 was < 200 nM.

Regarding `COc1cc([C@](O)(CNC(=O)c2cc(OC)c3nn(C4CC4)cc3c2)c2cc3c(c(-c4cccc(Cl)c4Cl)n2)OC[C@]3(C)C(N)=O)cc(OC)n1` [Example 497], the EC50 is < 200 nM. Regarding `COc1cc([C@](O)(CNC(=O)c2cc(OC)c3nn(C(F)F)cc3c2)c2cc3c(c(-c4cccc(Cl)c4Cl)n2)OC[C@]3(C)C(N)=O)cc(OC)n1` [Example 498], the EC50 is < 200 nM. For the molecule `COc1cc(C(=O)NCC(O)(c2cc(F)nc(F)c2)c2cc3c(c(-c4cccc(Cl)c4Cl)n2)OC[C@]3(C)C(N)=O)cc2cn(C3CC3)nc12` (stereo partly drawn) [Example 499], the half-maximal effective concentration (EC50) was < 200 nM. Next, `COc1cc(C(=O)NCC(O)(c2cc(F)nc(F)c2)c2cc3c(c(-c4cccc(Cl)c4Cl)n2)OC[C@]3(C)C(N)=O)cc2cn(C(F)F)nc12` (stereo partly drawn) [Example 500]: < 200 nM. As for `COc1cc(C(=O)NC[C@@](O)(c2ccnc(C#N)c2)c2cc3c(c(-c4cc(Cl)c(F)cc4F)n2)OC[C@]3(C)C(N)=O)cc2cn(C3CC3)nc12` [Example 501], the EC50 is < 200 nM. For `COc1cc([C@](O)(CNC(=O)c2cc(OC)c3nn(C4CC4)cc3c2)c2cc3c(c(-c4cc(Cl)c(F)cc4F)n2)OC[C@]3(C)C(N)=O)cc(F)n1` [Example 503], the EC50 is < 200 nM. Next, `COc1cc(C(=O)NC[C@@](O)(c2cc[nH]c(=O)c2)c2cc3c(c(-c4cc(Cl)c(F)cc4F)n2)OC[C@]3(C)C(N)=O)cc2cn(C3CC3)nc12` [Example 504]: > 200 nM; `COc1cc(C(=O)NC[C@@](O)(c2ccc(=O)[nH]c2)c2cc3c(c(-c4cc(Cl)c(F)cc4F)n2)OC[C@]3(C)C(N)=O)cc2cn(C3CC3)nc12` [Example 505]: > 200 nM. Consider `COc1cc(C(=O)NC[C@](O)(c2cc3c(c(-c4cc(Cl)c(F)cc4F)n2)OC[C@]3(C)C(N)=O)C2(C)CC2)cc2cn(C3CC3)nc12` [Example 516], for which the EC50 was < 200 nM. With `COc1cc(C(=O)NC[C@](O)(c2cc3c(c(-c4ccnc(Cl)c4Cl)n2)OC[C@]3(C)C(N)=O)C2(F)CC2)cc2cn(C3(F)CC3)nc12` [Example 519], the EC50 was < 200 nM. As for `COc1cc(C(=O)NC[C@](O)(c2cc3c(c(-c4ccnc(Cl)c4Cl)n2)OC[C@]3(C)C(N)=O)C2(F)CC2)cc2oc(C3CC3)nc12` [Example 520], the EC50 is < 200 nM. In the case of `COc1cc(C(=O)NC[C@](O)(c2cc3c(c(-c4ccnc(Cl)c4Cl)n2)OC[C@]3(C)C(N)=O)C2(F)CC2)cc2cn(C(F)F)nc12` [Example 521], the half-maximal effective concentration (EC50) is < 200 nM. On to `COc1cc(C(=O)NC[C@](O)(c2cc3c(c(-c4ccnc(Cl)c4Cl)n2)OC[C@]3(C)C(N)=O)C2(F)CC2)cn2cc(C3(F)CC3)nc12` [Example 522], for which the EC50 was < 200 nM.

As for `C[C@]1(C(N)=O)COc2c1cc([C@@](O)(CNC(=O)c1cc(Cl)c3nn(C4CC4)cc3c1)C1(F)CC1)nc2-c1ccnc(Cl)c1Cl` [Example 523], the EC50 is < 200 nM. Consider `COc1cc(C(=O)NC[C@](O)(c2cc3c(c(-c4ccnc(Cl)c4Cl)n2)OC[C@]3(C)C(N)=O)C2(F)CC2)cc2sc(C)nc12` [Example 524], for which the EC50 is < 200 nM. With `COc1cc(C(=O)NC[C@](O)(c2cc3c(c(-c4ccnc(C)c4Cl)n2)OC[C@]3(C)C(N)=O)C2(F)CC2)cc2cn(C3(F)CC3)nc12` [Example 525], the EC50 was < 200 nM. As to `COc1cc(C(=O)NC[C@](O)(c2cc3c(c(-c4ccnc(C)c4Cl)n2)OC[C@]3(C)C(N)=O)C2(F)CC2)cn2cc(C3(F)CC3)nc12` [Example 528], the EC50 is > 200 nM. On to `Cc1nccc(-c2nc([C@@](O)(CNC(=O)c3cc(Cl)c4nn(C5CC5)cc4c3)C3(F)CC3)cc3c2OC[C@]3(C)C(N)=O)c1Cl` [Example 529], for which the EC50 was > 200 nM. Regarding `COc1cc(C(=O)NC[C@](O)(c2cc3c(c(-c4ccnc(C)c4Cl)n2)OC[C@]3(C)C(N)=O)C2(F)CC2)cc2sc(C)nc12` [Example 530], the EC50 was > 200 nM. Turning to `COc1cc(C(=O)NC[C@](O)(c2cc3c(c(-c4ccnc(C)c4Cl)n2)OC[C@]3(C)C(N)=O)C2(F)CC2)cc2oc(C3(F)CC3)nc12` [Example 532], the EC50 was > 200 nM. On to `COc1cc(C(=O)NC[C@](O)(c2cc3c(c(-c4ccnc(C)c4Cl)n2)OC[C@]3(C)C(N)=O)C2(F)CC2)cc2oc(C(F)F)nc12` [Example 533], for which the concentration giving a half-maximal response (EC50) was > 200 nM. Under `C[C@]1(C(N)=O)COc2c1cc([C@@](O)(CNC(=O)c1cc(Cl)c3nn(C4CC4)cc3c1)C(F)(F)F)nc2-c1ccnc(C(F)(F)F)c1Cl` [Example 535] stands < 200 nM; under `COc1cc(C(=O)NC[C@](O)(c2cc3c(c(-c4ccnc(C(F)(F)F)c4Cl)n2)OC[C@]3(C)C(N)=O)C(F)(F)F)cc2sc(C)nc12` [Example 537], < 200 nM.

Turning to `COc1cc(C(=O)NC[C@@](O)(c2cccc(F)c2)c2cc3c(c(-c4ccnc(C)c4Cl)n2)OC[C@]3(C)C(N)=O)cc2cn(C(F)F)nc12` [Example 538], the EC50 is < 200 nM. `COc1cc(C(=O)NC[C@@](O)(c2cccc(F)c2)c2cc3c(c(-c4ccnc(C)c4Cl)n2)OC[C@]3(C)C(N)=O)cc2cn(C3(F)CC3)nc12` [Example 539]: the EC50 is < 200 nM.

For `COc1cc(C(=O)NC[C@@](O)(c2cccc(F)c2)c2cc3c(c(-c4ccnc(C)c4Cl)n2)OC[C@]3(C)C(N)=O)cc2oc(C3CC3)nc12` [Example 540], the EC50 is < 200 nM.

For `COc1cc(C(=O)NC[C@@](O)(c2ccc(F)cc2)c2cc3c(c(-c4ccnc(C(F)(F)F)c4F)n2)OC[C@]3(C)C(N)=O)cc2oc(C(F)F)nc12` [Example 541], the EC50 was < 200 nM.

Take `COc1nccc(-c2nc([C@@](O)(CNC(=O)c3cc(Cl)c4nn(C5CC5)cc4c3)C(F)(F)F)cc3c2OC[C@]3(C)C(N)=O)c1Cl` [Example 544]: the EC50 was < 200 nM. As for `COc1nccc(-c2nc([C@@](O)(CNC(=O)c3cc(OC)c4nc(C5CC5)oc4c3)C(F)(F)F)cc3c2OC[C@]3(C)C(N)=O)c1Cl` [Example 545], the EC50 is < 200 nM. For `COc1nccc(-c2nc([C@@](O)(CNC(=O)c3cc(OC)c4nc(C)sc4c3)C(F)(F)F)cc3c2OC[C@]3(C)C(N)=O)c1Cl` [Example 546], the EC50 is < 200 nM.

Source of the values: patent publication US20240368174A1, “Antiviral Heterocyclic Compounds” (Enanta Pharmaceuticals, Inc., priority 2023, published 2024).
